Results taken from US20170183318A1, “AMIDE COMPOUNDS, METHODS FOR PREPARATION, AND USE THEREOF AS AGENTS FOR THE TREATMENT AND PREVENTION OF DISEASES CAUSED BY RNA- AND/OR DNA-CONTAINING VIRUSES, AND CONCOMITANT DISEASES” (OBSCHESTVO S OGRANICHENNOI OTVETSTVENNOSTIYU …, priority 2014, published 2017).
Where two headings read alike, the source gives them in different places. Starred links: 1 amine or outer side, 2 acyl side, 3 side chain; linkers in the order of their positions; H or OH if unused. Non-standard residues stand in square brackets, D forms with d. Residues, ends and D or L forms follow the SMILES beside them. ξ: configuration not given here. Glutaryl = O=C(CCCC(=O)[*:2])[*:1]; ξH = NC(Cc1c[nH]cn1)C(=O)O

Experiments:
[1] = system: human respiratory syncytial virus (strain A2); experiment: Antiviral activity against RS virus in a murine model of suppressed immune system (lung edema); type: in vivo; conditions: Balb/c mice, cyclophosphan-suppressed, RS-virus pneumonia; 30 mg/kg once daily for 5 days; M ± SD, n = 5; scores from possible 4
Method: Antiviral activity of the chemical compounds against human respiratory syncytial virus (strain A2, an infectious titer of 5×10^6 TCID50/mL) was assessed in a Balb/c murine model of viral pneumonia. The virus was inoculated to animals intranasally in a volume of 50 μL under brief ether anesthesia. The immune response in animals to RS virus was suppressed by intraperitoneal administration of cyclophosphan at a dose of 100 mg/kg 5 days before infection. The studied compounds were administered according to the treatment regimen once daily at a dose of 30 mg/kg for 5 days, starting 24 hours after infection. The activity of the compounds was determined by a reduction in edema of the lung infected with respiratory syncytial virus, compared to the control, on day 5 after infection.

human virus hRSV = experiment: Antiviral activity against mouse-adapted RS virus (body weight; viral titer in lungs titrated in Hep-2 cells); type: in vivo, mice; conditions: for hRSV in the lungs of mice, Day 5, lg / hRSV in the lungs of mice, Day 7, lg: 10% lung suspension titrated in Hep-2 cells (TCID); for hRSV in the lungs of mice, Day 5, lg / Body weight of the mice on day 5 after infection with hRSV (M ± SD) / hRSV in the lungs of mice, Day 7, lg / Body weight of the mice on day 7 after infection with hRSV (M ± SD): compounds 30 mg/kg, Ribavirin 40 mg/kg; for Body weight of the mice on day 5 after infection with hRSV (M ± SD) / Body weight of the mice on day 7 after infection with hRSV (M ± SD): orally once daily for 5 days, n = 6; for log reduction at 30 mg/kg: human respiratory syncytial virus, HEp-2, po
Method: Antiviral effectiveness of the chemical compounds against RSV in an experimental murine model in vivo was determined for human virus hRSV that was previously adapted to the growth in mouse lungs. The animals were infected with the virus at a dose of 0.5 log TCID50 intranasally under brief ether anesthesia in a volume of 0.05 ml/mouse. The studied compounds were administered orally once daily for 5 days according to the treatment regimen at a dose of 30 mg/kg. The first administration was made 24 hours after infection. Normal saline solution was administered to mice as placebo. Intact animals served as a negative control and were hold in a separate room under the same conditions as the experimental animals. Each experimental group comprised 12 animals.
The antiviral activity of the studied compounds was determined by the efficiency in the prevention of weight loss and by suppression of the reproduction of hRSV in the mouse lungs by measuring a viral titer in the experimental groups relative to the control on days 5 and 7 after infection.
In addition, the therapeutic action of the compounds of general formula I was determined by their ability to suppress the reproduction of hRSV in the mouse lungs on days 5 and 7 after infection. The viral titer was determined by the titration of a 10% lung suspension in Hep-2 cell culture. The result was registered 2 days after the incubation at 37° C. by TCID.

[2] = Rat model of nasopharyngitis induced by formalin (nasal mucosa changes, cell elements in nasal lavage); type: in vivo; conditions: Wistar rats, 18 mg/kg for 3 days; for Mucous membrane of nasal passages: Without changes (number of animals): number of animals out of n = 10, control 0 of 20; for Mucous membrane of nasal passages: Discharge mucus from the nasal passages (number of animals): number of animals out of n = 10, control 20 of 20
Method: Nasopharyngitis was induced by intranasal administration of formalin to each nasal passage of rats.
The administration of formalin to the nasal passages of rats leads to the dissemination of inflammation to adjacent tissues, resulting in a clinical pattern similar to the symptoms of nasopharyngitis in a human.
After an acclimatization period, the following groups were formed: • intact animals administered intragastrically a physiological solution in an amount of 0.2 ml, without induction of nasopharyngitis; • a control group consisted of animals administered intragastrically a physiological solution in an amount of 0.2 ml for 3 days after induction of nasopharyngitis; and • animals administered the studied compounds at a dose of 18 mg/kg for 3 days after induction of nasopharyngitis.
Clinical observation of each animal was performed every day at least twice daily.
The caused pathology was characterized by hyperplasia, increased number of caliciform cells, pronounced infiltration of mononuclear cells and leucocytes, and mucus hyperproduction by submucosal glands.
After euthanasia, the inflammation pattern in the nasal passages and throat was studied in each group of animals. The nasal passages were washed with 5 mL of physiological solution and the score of cell elements were counted in 1 μL.

[3] = system: herpes simplex virus belonging to antigenic type 2; experiment: Murine model of experimental herpetic meningoencephalitis (mortality); type: in vivo, white outbred mice; conditions: Mus musculus, po, 336 h
Method: In the study, herpes simplex virus belonging to antigenic type 2 was used. White outbred mice weighing 7-8 g were infected i/c (intracerebrally) in a volume of 0.05 ml/mouse comprising a dose of 10LD50. The infectious dose of the virus that caused 100% mortality in mice was 10LD50. Each experimental group comprised 20 mice. Intact animals served as control and were hold in a separate room under the same conditions as the experimental animals. The antiviral activity of the compounds of general formula I was studied by oral administration of the compounds to infected mice once daily at a dose of 30 mg/kg/mouse 24, 48, 72, 96, and 120 hours after infection of the animals with the virus. The mice of the control group were administered placebo (0.2 mL of physiological solution) under the same conditions. The animals were monitored for 14 days after infection by registration the mouse death in the groups.
Each animal was subjected to once-daily observation. The observation included the assessment of general behavior and body condition of animals. The animals were handled according to the International Standards.
The activity of the compounds was evaluated by comparing mortality rates in the groups of animals administered a preparation and placebo.

[4] = system: Coxsackie A2 virus (strain HCXV A2); experiment: Antiviral activity against Coxsackie virus in vivo (mortality and life expectancy of infected mice); conditions: for inhibition in vivo at 30 mg/kg / mortality at 30 mg/kg: Mus musculus, po; for inhibition in vivo at 30 mg/kg: 168 h, vs virus control, read-out: Protective index (%); for inhibition in vivo at 30 mg/kg / Average life expectancy (days), Compared with control / Average life expectancy (days), Relative: 30 mg/kg orally once daily for 7 days; for mortality at 30 mg/kg: 360 h, read-out: Total mortality, %; for Average life expectancy (days), Compared with control: difference vs virus control; for Average life expectancy (days), Relative: mice infected with 10LD50 HCXV A2
Method: In the study a trypsin-dependent strain HCXV A2 was used, previously adapted and causing death in mice from Coxsackie virus infection.
The experiment was carried out in white mice weighing 6 to 7 g. The animals were infected intramuscularly with a dose of 0.1 mL/mouse. The used infectious dose causing mortality in mice was 10LD50.
The ability of compounds to provide a therapeutic effect was determined by the mortality rate of HCXV A2 virus-infected mice in the experimental group relative to the group of untreated animals.
The studied compounds and placebo were administered orally according to the treatment regimen. Normal saline solution was administered to mice as placebo. Intact animals served as a negative control and were hold in a separate room under the same conditions as the experimental animals.
For the experiment, groups were formed with 14-15 animals each. Compounds were administered at a dose of 30 mg/kg of body weight. The studied compounds were administered orally once daily for 7 days (first administration was made 24 hours after infection). The animals were monitored for 15 days during which the animals were weighed and the mortality rate was registered every day.

[5] = 120 h, read-out: Suppression of the reproduction of hRSV in the lungs of mice, Day 5, Δlg
[6] = 168 h, read-out: Suppression of the reproduction of hRSV in the lungs of mice, Day 7, Δlg

Row | SMILES | Degree of lung edema on day 5 after infection, score [1] | hRSV in the lungs of mice, Day 5, lg (human virus hRSV) | Body weight of the mice on day 5 after infection with hRSV (M ± SD) (human virus hRSV) | hRSV in the lungs of mice, Day 7, lg (human virus hRSV) | Body weight of the mice on day 7 after infection with hRSV (M ± SD) (human virus hRSV) | log reduction at 30 mg/kg (human virus hRSV; [5]) | log reduction at 30 mg/kg (human virus hRSV; [6]) | other results
1 | O=C(O)CCCC(=O)NCCC1CCNC1 (stereo not drawn) [Compound 1] | 1.3 ± 0.27 score | 2.88 ± 0.59 lg | 16.43 ± 0.14 | 1.46 ± 0.17 lg | 17.98 ± 0.26 | 1.73 ± 0.59 | 2.34 ± 0.17 | –
2 | O=C(O)CCCC(=O)NCCC1=NCCN1 [Compound 3] | 1.6 ± 0.89 score | 3.04 ± 0.42 lg | 16.65 ± 0.28 | 1.46 ± 0.17 lg | 17.32 ± 0.25 | 1.56 ± 0.42 | 2.18 ± 0.28 | –
3 | O=C(O)CCCC(=O)NCCC1CNC=N1 (stereo not drawn) [Compound 4] | 1.95 ± 0.31 score | 2.58 ± 0.51 lg | 16.77 ± 0.20 | 1.38 ± 0.24 lg | 17.08 ± 0.32 | 2.02 ± 0.51 | 2.58 ± 0.53 | –
4 | O=C(O)CCCC(=O)NCCC1CNCCO1 (stereo not drawn) [Compound 9] | 1.00 ± 0.17 score | – | 15.75 ± 0.33 | – | 16.18 ± 0.29 | – | – | –
5 | O=C(O)CCCC(=O)NCCc1cc[nH]n1 [Compound 15] | – | – | – | – | – | – | – | Mucous membrane of nasal passages: Without changes (number of animals) [2]: 7; Mucous membrane of nasal passages: Discharge mucus from the nasal passages (number of animals) [2]: 3; mortality at 30 mg/kg [3]: 30%
6 | O=C(O)CCCC(=O)NCCCc1ccccn1 [Compound 35] | 1.48 ± 0.17 score | – | – | – | – | – | – | inhibition in vivo at 30 mg/kg [4]: 27%; mortality at 30 mg/kg [4]: 53.3%; Average life expectancy (days), Compared with control [4]: +5.9 days; Average life expectancy (days), Relative [4]: 16.6 days
7 | COC(=O)C(NC(=O)C(Cc1cnc[nH]1)NC(=O)CCCC(=O)O)C(C)C (stereo not drawn) [Compound 89] (Glutaryl-His-Val-OMe; configuration not given here) | 0.75 ± 0.17 score | – | – | – | – | – | – | inhibition in vivo at 30 mg/kg [4]: 27%; mortality at 30 mg/kg [4]: 53.3%; Average life expectancy (days), Compared with control [4]: +7.0 days; Average life expectancy (days), Relative [4]: 17.7 days
8 | COC(=O)C(C)NC(=O)C(Cc1cnc[nH]1)NC(=O)CCCC(=O)O (stereo not drawn) [Compound 91] | 0.40 ± 0.11 score | – | – | – | – | – | – | –
9 | CC(NC(=O)C(Cc1cnc[nH]1)NC(=O)CCCC(=O)O)C(N)=O (stereo not drawn) [Compound 92] (Glutaryl-His-Ala-NH2; configuration not given here) | – | – | – | – | – | – | – | Mucous membrane of nasal passages: Without changes (number of animals) [2]: 6; Mucous membrane of nasal passages: Discharge mucus from the nasal passages (number of animals) [2]: 4; mortality at 30 mg/kg [3]: 25%
10 | NC(=O)C(CO)NC(=O)C(Cc1cnc[nH]1)NC(=O)CCCC(=O)O (stereo not drawn) [Compound 96] (Glutaryl-His-Ser-NH2; configuration not given here) | 0.35 ± 0.11 score | – | – | – | – | – | – | –
11 | NCCCC(=O)NCCCc1cccs1 [Compound 100] | – | – | – | – | – | – | – | Mucous membrane of nasal passages: Without changes (number of animals) [2]: 3; Mucous membrane of nasal passages: Discharge mucus from the nasal passages (number of animals) [2]: 7; mortality at 30 mg/kg [3]: 30%
12 | O=C(O)CCCC(=O)NCCc1cc[nH]c1 [Compound 120] | 1.05 ± 0.14 score | 3.04 ± 0.47 lg | 16.12 ± 0.27 | 1.50 ± 0.25 lg | 17.22 ± 0.20 | 1.56 ± 0.47 | 2.05 ± 0.25 | –
13 | O=C(O)CCCC(=O)NCCc1cscn1 [Compound 121] | 1.30 ± 0.60 score | 3.08 ± 0.47 lg | 16.35 ± 0.20 | 1.50 ± 0.14 lg | 17.38 ± 0.29 | 1.52 ± 0.47 | 2.09 ± 0.22 | –
14 | O=C(O)CCCC(=O)NCCc1cnco1 [Compound 123] | 1.30 ± 0.17 score | 2.50 ± 0.43 lg | 15.87 ± 0.20 | 1.33 ± 0.19 lg | 17.55 ± 0.53 | 2.1 ± 0.43 | 2.62 ± 0.5 | –
15 | O=C(O)CCCC(=O)NCCc1cn[nH]n1 [Compound 126] | – | – | – | – | – | – | – | Mucous membrane of nasal passages: Without changes (number of animals) [2]: 4; Mucous membrane of nasal passages: Discharge mucus from the nasal passages (number of animals) [2]: 6; mortality at 30 mg/kg [3]: 40%
16 | O=C(O)CCCC(=O)NCCc1cnccn1 [Compound 131] | – | – | – | – | – | – | – | Mucous membrane of nasal passages: Without changes (number of animals) [2]: 5; Mucous membrane of nasal passages: Discharge mucus from the nasal passages (number of animals) [2]: 5; mortality at 30 mg/kg [3]: 45%
17 | O=C(O)CCCC(=O)NCCc1cn2ccccc2n1 [Compound 139] | 1.75 ± 0.77 score | – | – | – | – | – | – | –
18 | COC(=O)C(NC(=O)C(Cc1cnc[nH]1)NC(=O)CCCC(=O)O)C(C)O (stereo not drawn) [Compound 148] (Glutaryl-His-Thr-OMe; configuration not given here) | 2.00 ± 0.31 score | – | – | – | – | – | – | –
19 | NC(=O)CNC(=O)C(Cc1c[nH]cn1)NC(=O)CCCC(=O)O (stereo not drawn) [Compound 184] (Glutaryl-[ξH]-Gly-NH2) | 1.00 ± 0.19 score | – | – | – | – | – | – | –
